Data: patent publication US20070048325A1, “Combination therapies for inhibiting integrin-extracellular matrix interactions” (priority 2005, published 2007)
Where no end group is shown, it is not given here.

Assays:
[1] = target: integrin αvβ3 on M21 human melanoma cells (human (on human melanoma M21 cells)) (UniProt P06756); test: cell-based or functional assay
[2] = system: denatured collagen type-IV; test: Competition ELISA of CLK-peptide and mAb HUIV26; format: binding
Experimental: FIG. 26 Binding of CLK-Peptide and Mab HUIV26 to Denatured Collagen Type IV. To examine the epitope bound by CLK and HUIV26, competition ELISAs were carried out. Microtiter wells were coated with denatured collagen type-IV (10 μg/ml), and mAb HUIV26 was allowed to bind the denatured collagen in the presence or absence of CLK-peptide.
To characterize the epitope bound by CLK and HUIV26, competition ELISAs were carried out. Microtiter wells were coated with denatured collagen type-IV (1 μg/ml) overnight at 4° C., and the plates were blocked with 1% BSA for 1 hour at 37° C. Monoclonal Ab HUIV26 was added at 1 μg/ml and allowed to bind the denatured collagen in the presence or absence of 100 μg/ml of CLK-peptide for 2 hours at 37° C. Goat-anti-mouse antibody was added at 1:3000 and incubation was allowed for 1 hour at 37° C. A color solution, then a stopping solution of 4N sulfuric acid, were added and binding was quantified by measuring the O.D. 490 nm. […] Similar results were obtained over a wide range of peptide and antibody concentrations (1 to 100 μg/ml; data not shown).

[3] = system: denatured collagen type-IV; test: ^99Tc-labeled CLK-peptide binding, gamma counter; conditions: for inhibition of ^99Tc-CLK-peptide binding to denatured collagen type-IV: collagen coated at 10 μg/ml
Experimental: FIG. 28 Inhibition of Binding of ^99Tc-Labeled CLK-Peptide to Denatured Collagen Type-IV by mAb HUI77. Denatured collagen type-IV (10 μg/ml) was coated on microtiter wells and binding of ^99Tc-labeled CLK-peptide in the presence or absence of unlabeled CLK-peptide or mAb HUI77 was measured. […] These findings provide further evidence that the CLK-peptide binds to a similar, if not identical, epitope recognized by the mAb HUI77.
In addition, denatured collagen type-IV (10 μg/ml) was coated on microtiter wells and binding of ^99Tc-labeled CLK-Peptide in the presence or absence of unlabeled CLK-peptide or mAb HUI77 was measured using a gamma counter. […] These findings provide further evidence that the CLK-peptide binds to a similar if not identical epitope recognized by Mab HUI77.

M21 cells = test: M21 cell adhesion to native collagen type-IV; format: cell-based, human; conditions: CLK-peptide 100 μg/ml; mAb HUIV26 100 μg/ml; data not shown
Experimental: FIG. 25 Effect of mAb HUIV26 in Combination with CLK-Peptide on Adhesion of M21 Cells to Denatured Collagen Type IV. Microtiter wells were coated with either native or denatured collagen type-IV. M21 cells were allowed to bind to the coated substrates in the presence of CLK-peptide, mAb HUIV26, or both.
The effects of CLK-peptide, mAb HUIV26, and the combination of both on tumor cell adhesion were examined in vitro. Non-tissue culture treated 48-well microtiter plates were coated overnight at 4° C. with either native or denatured collagen type-IV (5 μg/ml). The plates were then blocked with 1% BSA in PBS for 1 hour at 37° C. Human melanoma (M21) cells at 10^5 cells/well in adhesion buffer were allowed to attach to the coated wells in the presence of either CLK-peptide (100 μg/ml), or mAb HUIV26 (100 μg/ml, […]), or both together (CLK-peptide 25 μg/ml, mAb HUIV26 100 μg/ml). The cells were washed 2× with PBS, stained with crystal violet and destained with 10% acetic acid. Cell adhesion was quantified by measuring the O.D. of eluted dye at 600 nm. Data bars represent the mean O.D.±standard deviation from triplicate wells.

[4] = system: denatured collagen type-IV; conditions: substantially greater defined as at least 1.5-fold; cited from earlier work
denatured collagen = conditions: cited from earlier work
[5] = system: denatured collagen type-IV; test: Solid phase ELISA of HRP-labeled CLK-peptide binding; conditions: collagen coated at 10 μg/ml; ELISA 490 nm
Experimental: FIG. 27 Inhibition of Binding of Labeled CLK-Peptide to Denatured Collagen Type-IV by mAb HUI77. To examine the binding specificity of the synthetic CLK-peptide, the peptide was labeled and solid phase ELISAs were performed.
To examine the binding specificity of CLK-Peptide, the peptide was labeled and solid phase ELISAs were performed. Denatured collagen type-IV (10 μg/ml) was coated on microtiter wells and binding of either HRP-labeled CLK-Peptide or mAbs (mAbs HU177 or HUIV26) was measured by ELISA at a wavelength of 490 nm.

UniProt P06756, sequence (P06756 31-1048, chain 1 of 2): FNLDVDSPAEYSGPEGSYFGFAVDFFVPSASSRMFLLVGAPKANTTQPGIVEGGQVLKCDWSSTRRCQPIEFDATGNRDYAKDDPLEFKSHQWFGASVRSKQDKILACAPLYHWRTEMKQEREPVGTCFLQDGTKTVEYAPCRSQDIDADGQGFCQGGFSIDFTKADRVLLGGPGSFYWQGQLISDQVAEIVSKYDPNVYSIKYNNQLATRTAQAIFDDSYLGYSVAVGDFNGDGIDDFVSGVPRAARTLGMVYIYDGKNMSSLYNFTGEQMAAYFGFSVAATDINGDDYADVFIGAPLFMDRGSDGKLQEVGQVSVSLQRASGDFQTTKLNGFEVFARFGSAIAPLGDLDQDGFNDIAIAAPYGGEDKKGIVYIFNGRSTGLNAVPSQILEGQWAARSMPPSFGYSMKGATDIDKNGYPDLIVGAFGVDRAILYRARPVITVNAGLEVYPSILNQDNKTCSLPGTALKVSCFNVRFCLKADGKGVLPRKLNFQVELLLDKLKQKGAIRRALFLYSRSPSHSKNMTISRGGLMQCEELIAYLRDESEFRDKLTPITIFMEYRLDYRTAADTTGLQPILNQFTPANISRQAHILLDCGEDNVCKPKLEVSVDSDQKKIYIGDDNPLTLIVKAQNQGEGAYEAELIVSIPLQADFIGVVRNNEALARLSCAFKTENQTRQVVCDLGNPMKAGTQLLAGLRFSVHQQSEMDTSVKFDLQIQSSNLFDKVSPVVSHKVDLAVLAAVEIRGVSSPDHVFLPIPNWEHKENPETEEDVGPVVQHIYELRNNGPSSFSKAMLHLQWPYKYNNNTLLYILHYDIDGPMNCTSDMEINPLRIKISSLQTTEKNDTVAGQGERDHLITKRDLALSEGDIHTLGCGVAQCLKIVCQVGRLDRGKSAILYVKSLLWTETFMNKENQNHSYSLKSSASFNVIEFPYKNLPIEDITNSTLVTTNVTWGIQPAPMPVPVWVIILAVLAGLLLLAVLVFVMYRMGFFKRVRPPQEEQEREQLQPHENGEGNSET
UniProt P06756, sequence (P05106 27-788, chain 2 of 2, further chain): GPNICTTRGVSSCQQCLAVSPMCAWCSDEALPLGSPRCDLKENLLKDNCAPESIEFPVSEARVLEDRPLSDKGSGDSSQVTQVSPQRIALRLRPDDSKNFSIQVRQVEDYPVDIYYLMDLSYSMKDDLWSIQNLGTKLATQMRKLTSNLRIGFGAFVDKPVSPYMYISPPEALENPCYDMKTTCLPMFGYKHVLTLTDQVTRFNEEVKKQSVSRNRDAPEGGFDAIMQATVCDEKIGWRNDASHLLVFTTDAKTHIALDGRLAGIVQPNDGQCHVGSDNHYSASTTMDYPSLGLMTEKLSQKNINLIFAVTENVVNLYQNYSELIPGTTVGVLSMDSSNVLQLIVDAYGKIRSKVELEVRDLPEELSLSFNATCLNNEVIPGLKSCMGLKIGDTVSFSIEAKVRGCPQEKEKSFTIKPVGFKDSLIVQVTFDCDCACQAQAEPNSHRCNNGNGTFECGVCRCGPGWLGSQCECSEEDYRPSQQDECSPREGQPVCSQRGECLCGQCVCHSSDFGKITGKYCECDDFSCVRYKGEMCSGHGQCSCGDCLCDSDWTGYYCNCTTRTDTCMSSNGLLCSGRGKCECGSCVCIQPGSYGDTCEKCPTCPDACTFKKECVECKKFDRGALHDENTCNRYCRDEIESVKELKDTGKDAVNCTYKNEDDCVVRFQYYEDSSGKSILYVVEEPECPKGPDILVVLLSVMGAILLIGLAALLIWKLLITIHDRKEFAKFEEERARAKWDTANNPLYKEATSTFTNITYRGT

Molecule	inhibition of ^99Tc-CLK-peptide binding to denatured collagen type-IV [3]	effect on M21 cell adhesion to native collagen type-IV (M21 cells)	binding affinity to denatured collagen type-IV compared to native collagen type-IV [4]	affinity to the native form of the collagen compared to denatured collagen (denatured collagen)	inhibition of HRP-labeled CLK-peptide binding to denatured collagen type-IV [5]	also measured
Mab LM609 (antibody)	–	–	–	–	–	relative level of IGFBP-4 RNA (real time PCR) in M21 cells on denatured collagen type-IV [1]: 8 fold; relative level of TSP-1 (real time PCR) in M21 cells on plates coated with anti-integrin Mabs [1]: > 50%; relative level of TSP-1 RNA (real time PCR) in M21 cells on denatured collagen type-IV [1]: 8 fold
NH2-C-L-K-Q-N-G-G-N—F—S-L-G-COOH (H-CLKQNGGNFSLG-OH) [CLK-peptide]	dose dependent inhibition	neither had any effect	substantially greater	–	–	blocking of mAb HUIV26 binding to denatured collagen type-IV ([2]; HUIV26 1 μg/ml, CLK-peptide 100 μg/ml): did not block
NH2-S-L-K-Q-N-G-G-N—F—S-L-C—COOH (H-SLKQNGGNFSLC-OH) [SLK-peptide]	–	–	substantially greater	–	–	–
^99Tc-CLK-peptide: CLK-peptide labeled with 99Tc (CLKQNGGNFSLG; also: labeled with 99Tc)	–	–	–	–	–	binding of ^99Tc-CLK-peptide to denatured collagen type-IV ([3]; 10 μg/ml, 50 μl/well): specifically binds
mAb HUI77: mouse monoclonal antibody to denatured collagen; hybridoma PTA-6551; SEQ ID NO: 1 and 8	inhibited	–	–	substantially reduced affinity	specifically inhibited	–
mAb HUIV26: monoclonal antibody to denatured collagen; Hybridoma HUIV26 (PTA-6563); SEQ ID NO: 15 and 22 (antibody, listed as Mus musculus, V domains shown) VH: EVKLLESGGGLVQPGGSLKLSCAASGFDFSRYWMSWVRQAPGKGLEWIGEINPDSSTINYTPSLKDKFIISRDNAKNTLYLQMSKVRSEDTALYYCARPVDGYYDAMDYWGQGTSVTVSS VL: DIVMTQSPSLLSVSAGEKVTMSCKSSQSLLNSGNQKNYLAWYQQKPGQPPKLLIYGASTRESGVPDRFTGSGSGTDFTLIISSVQAEDLAVYYCQNDHSVPYTFGGGTKLEI	–	neither had any effect	–	substantially reduced affinity	not	binding to denatured collagen type-IV ([2]; ELISA, HUIV26 1 μg/ml): readily bound; blocking of CLK-peptide binding to denatured collagen type-IV ([2]; FIG. 26B): did not block
